Like-named read-outs stand apart in the source and are kept apart here.
Tests used:
laying hens [1] = assay: Antigonadal Activity (ED20): ovarian weight of prime laying hens fed medicated diet for one week; format: in vivo, laying hens (chicken); conditions: medicated diet for seven days, based on at least 8 hens at 2 dose levels
Description: Antigonadal Activity--(ED20)
Prime laying hens (7-12 months), whose egg production has been documented during the preceding 2 weeks, are fed medicated diet for one week at various dose levels. At the conclusion of the one week test, the hens are sacrificed and their reproductive system is excised, examined and weighed. The seven day medication level producing a 20 g ovarian weight, based on at least 8 hens at 2 dose levels is calculated and recorded as ED20.
*Seven day medication level producing a 20 g ovarian weight in laying hen
(based on at least 8 hens at 2 dose levels)

laying hens [2] = assay: Anovulatory Activity (EPI): egg production of prime laying hens fed medicated diet; format: in vivo, laying hens (chicken); conditions: Gallus gallus, 192 h, read-out: EPI: Egg Production Index, % of control egg production for days 5 through 8
Description: Anovulatory Activity--(EPI)
Prime laying hens (7-12 months), whose egg production has been documented during the preceding 2 weeks, are fed diet containing medication at 100 ppm for 8 days. Egg production is recorded for days 5 through 8 while the birds are on test, and the Egg Production Index (EPI) is calculated as the % of control egg production for days 5 through 8 inclusive after start of oral medication at 100 ppm.
**Egg Production Index, % of control egg production for days 5 through 8
inclusive after start of oral medication at 100 ppm

| SMILES | ED20: seven day medication level producing a 20 g ovarian weight in laying hen (laying hens [1]) | response vs control in vivo at 100 ppm, 100 µg/mL (laying hens [2]; po) | response vs control in vivo at 100 ppm, 100 µg/mL (laying hens [2]; hens, oral medication in diet at 100 ppm for 8 days, days 5 through 8 inclusive) |
| --- | --- | --- | --- |
| Cc1ccccc1N=C1NCCN1 [compound 9] | 69 ppm | 8% |  |
| Cc1cc(Cl)ccc1N=C1NCCN1 [compound 5, 2-(4-chloro-2-methylphenylimino)imidazolidine] | 53 ppm | 24% |  |
| Cc1c(Cl)cccc1N=C1NCCN1 [compound 2, 2-(3-chloro-2-methylphenylimino)imidazolidine] | 38 ppm | 26% |  |
| Cc1cccc(N=C2NCCN2)c1C [compound 12] | 181 ppm | 86% |  |
| Cc1cc(Br)ccc1N=C1NCCN1 [compound 7] | 56 ppm | 24% |  |
| CCc1ccccc1N=C1NCCN1 [compound 10] | 83 ppm | 31% |  |
| Clc1ccccc1N=C1NCCN1 [compound 13, 2-(2-chlorophenylimino)imidazolidine] | 217 ppm | 31% |  |
| Clc1cccc(Cl)c1N=C1NCCN1 [compound 15] | 400 ppm |  | 70% |
| CCc1cccc(CC)c1N=C1NCCN1 [compound 11] | 151 ppm | 31% |  |
| Cc1cccc(C)c1N=C1NCCN1 [compound 1, 2-(2,6-dimethylphenylimino)imidazolidine] | 38 ppm | 18% |  |
| Cc1ccc(C)c(N=C2NCCN2)c1 [compound 14] | 250 ppm | 70% |  |
| Cc1ccc(F)cc1N=C1NCCN1 [compound 8, 2-(5-fluoro-2-methylphenylimino)imidazolidine] | 67 ppm | 24% |  |
| Cc1cc(C)c(N=C2NCCN2)c(C)c1 [compound 6, 2-(2,4,6-Trimethylphenylimino)imidazolidine] | 54 ppm | 31% |  |
| Cc1cccc(Cl)c1N=C1NCCN1 [compound 3, 2-(6-chloro-2-methylphenylimino)imidazolidine] | 40 ppm | 16% |  |
| Cc1ccc(N=C2NCCN2)c(C)c1 [compound 4] | 50 ppm | 24% |  |

— patent US4287201A, “Anovulatory method and chicken feed compositions” (Merck & Co., Inc., priority 1980, dated 1981)
